Columns and labels:
H1047R PIK3CA enzyme = H1047R PIK3CA enzyme (Homo sapiens, UniProt P42336, H1047R); assay: ADP-Glo Biochemical PIK3CA Kinase Assay
cells = details: Homo sapiens, MCF-10A, read-out: MCF10A IC50

H1047R PIK3CA enzyme, sequence (P42336 whole entry H1047R): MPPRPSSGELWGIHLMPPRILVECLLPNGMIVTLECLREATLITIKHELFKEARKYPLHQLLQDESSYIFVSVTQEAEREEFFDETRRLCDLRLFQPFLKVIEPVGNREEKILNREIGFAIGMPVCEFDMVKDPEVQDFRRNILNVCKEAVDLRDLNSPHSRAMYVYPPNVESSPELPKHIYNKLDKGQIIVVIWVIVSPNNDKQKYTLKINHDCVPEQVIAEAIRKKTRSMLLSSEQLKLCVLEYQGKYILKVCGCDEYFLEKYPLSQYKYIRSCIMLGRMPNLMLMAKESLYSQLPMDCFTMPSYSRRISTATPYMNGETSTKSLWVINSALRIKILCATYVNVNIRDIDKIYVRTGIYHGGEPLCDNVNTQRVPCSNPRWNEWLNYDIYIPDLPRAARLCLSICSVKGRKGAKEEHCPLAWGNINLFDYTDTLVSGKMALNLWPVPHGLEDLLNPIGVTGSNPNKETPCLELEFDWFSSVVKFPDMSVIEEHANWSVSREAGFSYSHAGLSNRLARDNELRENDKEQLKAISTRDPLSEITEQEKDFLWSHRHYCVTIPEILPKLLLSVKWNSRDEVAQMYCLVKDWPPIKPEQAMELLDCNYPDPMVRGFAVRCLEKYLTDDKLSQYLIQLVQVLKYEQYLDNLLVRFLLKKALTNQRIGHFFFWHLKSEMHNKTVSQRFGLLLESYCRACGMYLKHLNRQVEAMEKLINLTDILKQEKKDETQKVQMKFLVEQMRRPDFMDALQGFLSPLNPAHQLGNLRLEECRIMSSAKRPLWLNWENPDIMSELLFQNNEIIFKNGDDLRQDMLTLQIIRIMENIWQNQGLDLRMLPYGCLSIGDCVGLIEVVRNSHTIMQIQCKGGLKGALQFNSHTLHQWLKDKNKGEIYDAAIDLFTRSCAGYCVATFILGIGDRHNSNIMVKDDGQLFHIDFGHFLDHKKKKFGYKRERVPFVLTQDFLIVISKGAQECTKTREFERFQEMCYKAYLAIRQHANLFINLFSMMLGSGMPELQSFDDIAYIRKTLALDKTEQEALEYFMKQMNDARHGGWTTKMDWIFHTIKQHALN
H1047R PIK3CA enzyme, sequence (P27986 whole entry partner): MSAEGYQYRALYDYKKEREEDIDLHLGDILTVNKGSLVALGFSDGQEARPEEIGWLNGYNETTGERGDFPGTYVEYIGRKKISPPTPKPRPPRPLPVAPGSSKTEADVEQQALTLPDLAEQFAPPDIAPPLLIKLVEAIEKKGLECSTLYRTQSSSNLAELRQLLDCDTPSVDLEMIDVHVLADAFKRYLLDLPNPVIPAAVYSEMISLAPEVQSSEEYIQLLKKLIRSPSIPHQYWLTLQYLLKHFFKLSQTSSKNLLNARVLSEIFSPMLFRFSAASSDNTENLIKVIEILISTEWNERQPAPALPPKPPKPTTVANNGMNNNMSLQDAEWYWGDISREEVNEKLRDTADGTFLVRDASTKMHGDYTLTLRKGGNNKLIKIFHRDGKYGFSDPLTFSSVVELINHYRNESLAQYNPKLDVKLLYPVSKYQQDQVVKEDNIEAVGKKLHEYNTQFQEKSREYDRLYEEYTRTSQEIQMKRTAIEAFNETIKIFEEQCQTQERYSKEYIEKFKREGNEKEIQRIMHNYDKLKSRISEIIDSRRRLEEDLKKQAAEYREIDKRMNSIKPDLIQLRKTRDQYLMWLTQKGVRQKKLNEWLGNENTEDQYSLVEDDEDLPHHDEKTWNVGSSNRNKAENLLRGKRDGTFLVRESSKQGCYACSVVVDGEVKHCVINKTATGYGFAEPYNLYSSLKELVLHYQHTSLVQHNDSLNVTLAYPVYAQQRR

Compound | IC50 (H1047R PIK3CA enzyme) [nM] | IC50 (cells) [nM]
O=C(Nc1cc(-c2cncs2)cc2c1C(c1cc(F)ccc1Cl)NC2=O)c1cc(F)cc(C(F)(F)F)c1 (stereo not shown) [Compound I-1065] | ≤ 100 | < 1000
COc1nc(-c2cc(NC(=O)c3cc(F)cc(C(F)(F)F)c3)c3c(c2)C(=O)NC3c2cc(F)ccc2Cl)cs1 (stereo not shown) [Compound I-1066] | ≤ 100 | 1000 to 5000
NC(=O)c1nc(-c2cc(NC(=O)c3cc(F)cc(C(F)(F)F)c3)c3c(c2)C(=O)NC3c2cc(F)ccc2Cl)cs1 (stereo not shown) [Compound I-1067] | ≤ 100 | < 1000
O=C(Nc1cc(-c2cnsc2)cc2c1C(c1cc(F)ccc1Cl)NC2=O)c1cc(F)cc(C(F)(F)F)c1 (stereo not shown) [Compound I-1068] | ≤ 100 | < 1000
O=C(Nc1cc(-n2cccn2)cc2c1[C@H](c1cc(F)ccc1Cl)NC2=O)c1cc(F)cc(C(F)(F)F)c1 [Compound I-1069] | ≤ 100 | < 1000
Cn1ccc(Nc2cc(NC(=O)c3cc(F)cc(C(F)(F)F)c3)c3c(c2)C(=O)N[C@H]3c2cc(F)ccc2Cl)n1 [Compound I-1071] | ≤ 100 | < 1000
O=C1NC(c2cc(F)ccc2Cl)c2c(NC(=O)C34CC5CC(C3)CC(C(F)(F)F)(C5)C4)cccc21 (stereo not shown) [Compound I-1073] | ≤ 100 | < 1000
Cn1ccnc1Nc1cc(NC(=O)c2cc(F)cc(C(F)(F)F)c2)c2c(c1)C(=O)NC2c1cc(F)ccc1Cl (stereo not shown) [Compound I-1075] | ≤ 100 | < 1000
Cn1nc(-c2cc(NC(=O)c3cc(F)cc(C(F)(F)F)c3)c3c(c2)C(=O)NC3c2cc(F)ccc2Cl)ccc1=O (stereo not shown) [Compound I-1076] | ≤ 100 | < 1000
O=C(Nc1cc(-c2cn[nH]c2)cc2c1[C@H](c1cc(F)ccc1Cl)NC2=O)c1cc(F)cc(C(F)(F)F)c1 [Compound I-1078] | ≤ 100 | < 1000
CC(C)(O)Cc1cc(NC(=O)c2cc(F)cc(Cl)c2)c2c(c1)C(=O)N[C@H]2c1cc(F)ccc1Cl [Compound I-1080] | ≤ 100 | < 1000
O=C(Nc1cc(CS(=O)(=O)C2CC2)cc2c1C(c1cc(F)ccc1Cl)NC2=O)c1cc(F)cc(C(F)(F)F)c1 (stereo not shown) [Compound I-1081] | ≤ 100 | < 1000
Cn1nccc1CNc1cc(NC(=O)c2cc(F)cc(C(F)(F)F)c2)c2c(c1)C(=O)NC2c1cc(F)ccc1Cl (stereo not shown) [Compound I-1082] | ≤ 100 | < 1000
Cn1cnnc1Nc1cc(NC(=O)c2cc(F)cc(C(F)(F)F)c2)c2c(c1)C(=O)NC2c1cc(F)ccc1Cl (stereo not shown) [Compound I-1083] | ≤ 100 | 1000 to 5000
O=C(Nc1cc(-c2cscn2)cc2c1[C@H](c1cc(F)ccc1Cl)NC2=O)c1cc(F)cc(C(F)(F)F)c1 [Compound I-1084] | ≤ 100 | < 1000
O=C(Nc1cc(-n2cncn2)cc2c1C(c1cc(F)ccc1Cl)NC2=O)c1cc(F)cc(C(F)(F)F)c1 (stereo not shown) [Compound I-1086] | ≤ 100 | < 1000
COc1ncccc1-c1cc(NC(=O)c2cc(F)cc(C(F)(F)F)c2)c2c(c1)C(=O)NC2c1cc(F)ccc1Cl (stereo not shown) [Compound I-1091] | ≤ 100 | < 1000
O=C(Nc1cc(-c2ccc3ncncc3c2)cc2c1C(c1cc(F)ccc1Cl)NC2=O)c1cc(F)cc(C(F)(F)F)c1 (stereo not shown) [Compound I-1093] | ≤ 100 | < 1000
O=C(Nc1cc(-c2cncnc2)cc2c1[C@H](c1cc(F)ccc1Cl)NC2=O)c1cc(F)cc(C(F)(F)F)c1 [Compound I-1095] | ≤ 100 | < 1000
CC(C)(O)Cn1cc(-c2cc(NC(=O)c3cc(F)cc(C(F)(F)F)c3)c3c(c2)C(=O)N[C@H]3c2cc(F)ccc2Cl)cn1 [Compound I-1097] | ≤ 100 | < 1000
N#Cc1cnccc1-c1cc(NC(=O)c2cc(F)cc(C(F)(F)F)c2)c2c(c1)C(=O)NC2c1cc(F)ccc1Cl (stereo not shown) [Compound I-1098] | ≤ 100 | < 1000
O=C(Nc1cc(Nc2nnco2)cc2c1C(c1cc(F)ccc1Cl)NC2=O)c1cc(F)cc(C(F)(F)F)c1 (stereo not shown) [Compound I-1099] | ≤ 100 | < 1000
O=C(Nc1cc(-c2nc3ccccc3[nH]2)cc2c1C(c1cc(F)ccc1Cl)NC2=O)c1cc(F)cc(C(F)(F)F)c1 (stereo not shown) [Compound I-1101] | ≤ 100 | < 1000
Nc1cnc(-c2cc(NC(=O)c3cc(F)cc(C(F)(F)F)c3)c3c(c2)C(=O)NC3c2cc(F)ccc2Cl)cn1 (stereo not shown) [Compound I-1102] | ≤ 100 | < 1000

Compound | IC50 (H1047R PIK3CA enzyme) [nM] | IC50 (cells) [nM]
O=C(Nc1cc(C2CN(c3ccncn3)C2)cc2c1C(c1cc(F)ccc1Cl)NC2=O)c1cc(F)cc(C(F)(F)F)c1 (stereo not shown) [Compound I-1104] | ≤ 100 | < 1000
COc1nccc(-c2cc(NC(=O)c3cc(F)cc(C(F)(F)F)c3)c3c(c2)C(=O)NC3c2cc(F)ccc2Cl)n1 (stereo not shown) [Compound I-1105] | ≤ 100 | < 1000
O=C1N[C@@H](c2cc(F)ccc2Cl)c2c(Nc3nccc4c(C(F)(F)F)cc(F)cc34)cc(Br)cc21 [Compound I-1109] | ≤ 100 | < 1000
O=C(Nc1cc(Nc2cc[nH]n2)cc2c1C(c1cc(F)ccc1Cl)NC2=O)c1cc(F)cc(C(F)(F)F)c1 (stereo not shown) [Compound I-1112] | ≤ 100 | < 1000
Cc1nc2ccc(-c3cc(NC(=O)c4cc(F)cc(C(F)(F)F)c4)c4c(c3)C(=O)NC4c3cc(F)ccc3Cl)cn2n1 (stereo not shown) [Compound I-1123] | ≤ 100 | < 1000
Cc1nc2ncc(-c3cc(NC(=O)c4cc(F)cc(C(F)(F)F)c4)c4c(c3)C(=O)NC4c3cc(F)ccc3Cl)cn2n1 (stereo not shown) [Compound I-1124] | ≤ 100 | < 1000
O=C(Nc1cc(-n2cc(F)cn2)cc2c1C(c1cc(F)ccc1Cl)NC2=O)c1cc(F)cc(C(F)(F)F)c1 (stereo not shown) [Compound I-1146] | ≤ 100 | < 1000
COc1c(F)cccc1-c1cc(NC(=O)c2cc(F)cc(C(F)(F)F)c2)c2c(c1)C(=O)NC2c1cc(F)ccc1Cl (stereo not shown) [Compound I-1156] | ≤ 100 | < 1000
N#CN1CC(c2cc(NC(=O)c3cc(F)cc(C(F)(F)F)c3)c3c(c2)C(=O)NC3c2cc(F)ccc2Cl)C1 (stereo not shown) [Compound I-1157] | ≤ 100 | 5000 to 10000
N#CCN1CC(c2cc(NC(=O)c3cc(F)cc(C(F)(F)F)c3)c3c(c2)C(=O)NC3c2cc(F)ccc2Cl)C1 (stereo not shown) [Compound I-1158] | ≤ 100 | < 1000
CS(=O)(=O)Nc1cc(NC(=O)c2cc(F)cc(C(F)(F)F)c2)c2c(c1)C(=O)NC2c1cc(F)ccc1Cl (stereo not shown) [Compound I-1159] | ≤ 100 | < 1000
N#CCOc1cc(NC(=O)c2cc(F)cc(C(F)(F)F)c2)c2c(c1)C(=O)NC2c1cc(F)ccc1Cl (stereo not shown) [Compound I-1160] | ≤ 100 | < 1000
O=C1NC(c2cc(F)ccc2Cl)c2c(NC(=O)c3cc(F)cc4c(Cl)c[nH]c34)cccc21 (stereo not shown) [Compound I-1161] | 100 to 500 | 1000 to 5000
COc1nccc(N2CC(c3cc(NC(=O)c4cc(F)cc(C(F)(F)F)c4)c4c(c3)C(=O)NC4c3cc(F)ccc3Cl)C2)n1 (stereo not shown) [Compound I-1162] | ≤ 100 | < 1000
C#Cc1ccccc1-c1cc(NC(=O)c2cc(F)cc(C(F)(F)F)c2)c2c(c1)C(=O)NC2c1cc(F)ccc1Cl (stereo not shown) [Compound I-1163] | ≤ 100 | < 1000
O=C(Nc1cc(N2CCOCC2)cc2c1C(c1cc(F)ccc1Cl)NC2=O)c1cc(F)cc(C(F)(F)F)c1 (stereo not shown) [Compound I-1164] | ≤ 100 | < 1000
O=C(Nc1cc(-c2cnn(-c3ncccn3)c2)cc2c1C(c1cc(F)ccc1Cl)NC2=O)c1cc(F)cc(C(F)(F)F)c1 (stereo not shown) [Compound I-1418] | ≤ 100 | < 1000
O=C(Nc1cc(-c2cn3ncnc3cn2)cc2c1[C@H](c1cc(F)ccc1Cl)NC2=O)c1cc(F)cc(C(F)(F)F)c1 [Compound I-1441] | ≤ 100 | < 1000
O=C1N[C@@H](c2cc(F)ccc2Cl)c2c(NC(=O)c3csc4ccccc34)cc(-c3ccc4ncnn4c3)cc21 [Compound I-1684] | ≤ 100 | < 1000
O=C1N[C@@H](c2cc(F)ccc2Cl)c2c(NC(=O)[C@H]3CCC[C@@H](C(F)(F)F)C3)cc(-c3ccc4ncnn4c3)cc21 [Compound I-2029] | ≤ 100 | < 1000
CNc1nc2ccc(-c3cc(NC(=O)c4cc(F)cc(C(F)(F)F)c4)c4c(c3)C(=O)NC4c3cc(F)ccc3Cl)cn2n1 (stereo not shown) [Compound I-2125] | ≤ 100 | < 1000
N#CC1(C(=O)Nc2cc(NC(=O)c3cc(F)cc(C(F)(F)F)c3)c3c(c2)C(=O)NC3c2cc(F)ccc2Cl)CNC1 (stereo not shown) [Compound I-2149] | ≤ 100 | 10000 to 36000
O=C(Nc1cc(-c2cn3ncnc3cn2)cc2c1C(c1cc(F)ccc1C(F)F)NC2=O)c1cc(F)cc(C(F)(F)F)c1 (stereo not shown) [Compound I-2185] | ≤ 100 | < 1000

From patent US12581252B2, “Substituted pyrrolo[3,4-b]pyridines as PI3K-α inhibitors” (Relay Therapeutics, Inc., priority 2020, dated 2026)
